Experimental data from ChEMBL document CHEMBL5150049, “The discovery of (1R, 3R)-1-(3-chloro-5-fluorophenyl)-3-(hydroxymethyl)-1,2,3,4-tetrahydroisoquinoline-6-carbonitrile, a potent and selective agonist of human transient receptor potential cation channel subfamily m member 5 (TRPM5) and evaluation of as a potential gastrointestinal prokinetic agent” (Bioorg Med Chem, 2022).
Converted amounts (≈) assume the structure as drawn. The source made the active and inactive calls. The calls are words filed in the database; no cut-off is given here.

Legend:
Mus musculus [1] = experiment: Induction of gastrointestinal motility in CD-1 mouse assessed as increase in fecal water content at 10 to 100 mg/kg, po measured upto 6 hrs; assay type: functional, organism-based; details: dose 10-100 mg/kg
[2] = molecular target: T1, Transient receptor potential cation channel subfamily M member 5 (Homo sapiens) (UniProt Q9NZQ8); experiment: Agonist activity at human TRPM5 expressed in human Caco-2 cells assessed as increase in acetylcholine release at 50 uM incubated for 18 hrs by mass spectrometric analysis; assay type: cell-based; details: filed as agonist
T1 sequence (whole entry): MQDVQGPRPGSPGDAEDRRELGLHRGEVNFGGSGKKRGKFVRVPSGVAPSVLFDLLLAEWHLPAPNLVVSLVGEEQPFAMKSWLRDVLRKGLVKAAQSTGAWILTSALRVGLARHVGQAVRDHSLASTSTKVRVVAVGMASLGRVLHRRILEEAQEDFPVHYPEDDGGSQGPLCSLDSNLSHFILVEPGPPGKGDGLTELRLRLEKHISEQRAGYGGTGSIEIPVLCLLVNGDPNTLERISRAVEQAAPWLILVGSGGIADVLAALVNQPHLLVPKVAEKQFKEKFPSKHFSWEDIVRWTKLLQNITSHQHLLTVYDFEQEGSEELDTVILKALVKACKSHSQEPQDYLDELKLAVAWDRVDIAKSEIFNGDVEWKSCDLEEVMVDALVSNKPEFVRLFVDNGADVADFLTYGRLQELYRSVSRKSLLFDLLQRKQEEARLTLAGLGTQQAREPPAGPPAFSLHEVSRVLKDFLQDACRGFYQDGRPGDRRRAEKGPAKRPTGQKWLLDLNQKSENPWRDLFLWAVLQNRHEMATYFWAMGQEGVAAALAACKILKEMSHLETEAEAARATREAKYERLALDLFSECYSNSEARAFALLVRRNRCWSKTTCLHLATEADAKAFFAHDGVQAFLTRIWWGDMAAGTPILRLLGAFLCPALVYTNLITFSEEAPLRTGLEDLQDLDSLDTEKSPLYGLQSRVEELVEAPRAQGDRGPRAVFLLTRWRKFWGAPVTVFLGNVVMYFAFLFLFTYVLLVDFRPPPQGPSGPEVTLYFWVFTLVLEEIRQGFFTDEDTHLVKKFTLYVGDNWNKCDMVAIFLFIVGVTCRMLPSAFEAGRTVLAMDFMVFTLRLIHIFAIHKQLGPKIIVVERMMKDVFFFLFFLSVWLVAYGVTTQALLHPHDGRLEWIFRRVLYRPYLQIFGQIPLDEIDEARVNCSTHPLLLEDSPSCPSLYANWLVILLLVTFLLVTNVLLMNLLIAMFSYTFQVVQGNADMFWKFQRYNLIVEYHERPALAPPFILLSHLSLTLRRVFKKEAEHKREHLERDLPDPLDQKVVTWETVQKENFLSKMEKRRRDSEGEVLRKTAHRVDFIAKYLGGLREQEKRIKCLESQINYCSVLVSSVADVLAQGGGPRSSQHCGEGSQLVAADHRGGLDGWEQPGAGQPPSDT

Mus musculus [3] = experiment: Induction of gastrointestinal motility in CD-1 mouse assessed as increase in fecal weight at 10 to 100 mg/kg, po measured upto 6 hrs; assay type: functional, organism-based; details: dose 10-100 mg/kg
[4] = molecular target: T2, Transient receptor potential cation channel subfamily M member 5 (Mus musculus) (UniProt Q9JJH7); experiment: Binding affinity to mouse colon mucosal epithelium TRPM5 assessed as increase in short circuit current; assay type: tissue-based; details: Colonic epithelium, filed as agonist
T2 sequence (whole entry): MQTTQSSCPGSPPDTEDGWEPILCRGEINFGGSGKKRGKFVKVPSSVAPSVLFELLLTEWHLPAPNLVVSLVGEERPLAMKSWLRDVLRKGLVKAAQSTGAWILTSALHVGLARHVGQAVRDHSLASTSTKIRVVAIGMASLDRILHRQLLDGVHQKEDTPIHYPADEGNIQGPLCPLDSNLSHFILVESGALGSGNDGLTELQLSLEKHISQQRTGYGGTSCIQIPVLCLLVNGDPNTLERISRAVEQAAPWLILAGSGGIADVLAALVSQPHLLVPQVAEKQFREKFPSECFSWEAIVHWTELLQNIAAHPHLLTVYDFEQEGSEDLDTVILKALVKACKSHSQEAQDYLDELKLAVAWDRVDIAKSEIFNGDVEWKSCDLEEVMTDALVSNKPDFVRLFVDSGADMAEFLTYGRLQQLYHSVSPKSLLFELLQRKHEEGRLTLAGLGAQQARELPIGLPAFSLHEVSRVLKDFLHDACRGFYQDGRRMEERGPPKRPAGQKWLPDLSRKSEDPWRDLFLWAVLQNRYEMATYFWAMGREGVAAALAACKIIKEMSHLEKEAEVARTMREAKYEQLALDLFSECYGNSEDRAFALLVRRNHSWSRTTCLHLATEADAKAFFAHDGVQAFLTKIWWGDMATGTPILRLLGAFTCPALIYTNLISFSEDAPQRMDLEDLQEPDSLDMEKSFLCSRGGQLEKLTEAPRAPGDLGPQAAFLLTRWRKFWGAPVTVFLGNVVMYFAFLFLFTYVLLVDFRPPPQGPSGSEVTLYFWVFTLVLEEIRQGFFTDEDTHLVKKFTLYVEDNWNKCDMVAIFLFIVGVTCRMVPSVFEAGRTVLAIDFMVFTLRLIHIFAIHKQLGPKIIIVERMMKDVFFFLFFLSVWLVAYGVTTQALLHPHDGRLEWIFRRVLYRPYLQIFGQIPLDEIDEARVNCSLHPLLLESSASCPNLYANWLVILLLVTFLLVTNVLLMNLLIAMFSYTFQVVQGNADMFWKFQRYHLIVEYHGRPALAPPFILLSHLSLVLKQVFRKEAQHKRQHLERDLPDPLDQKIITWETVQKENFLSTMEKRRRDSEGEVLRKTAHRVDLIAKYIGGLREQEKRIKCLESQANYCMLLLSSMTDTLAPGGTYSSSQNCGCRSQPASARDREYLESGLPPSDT

[5] = Metabolic stability in human liver microsomes assessed as half life; assay type: ADME, Microsome; details: liver microsomes
[6] = molecular target: T3, Transient receptor potential cation channel subfamily M member 5 (Homo sapiens, UniProt Q9NZQ8); experiment: Agonist activity at human TRPM5 expressed in CHO-K1 cells assessed as increase in relative fluorescence unit measured for 2 mins by FLIPR based membrane potential assay; assay type: cell-based
T3 sequence (Q9NZQ8 whole entry): T1 sequence (whole entry)

[7] = molecular target: T3, Transient receptor potential cation channel subfamily M member 5; experiment: Agonist activity at human TRPM5 expressed in HEK cells by whole cell electrophysiology method; assay type: cell-based
[8] = molecular target: T3, Transient receptor potential cation channel subfamily M member 5; experiment: Agonist activity at TRPM5 (unknown origin)
[9] = Half-life in Sprague-Dawley rat; assay type: ADME; details: in vivo
[10] = Solubility of the compound in JP2 solution; assay type: physicochemical
[11] = Metabolic stability in human liver microsomes assessed as intrinsic clearance; assay type: ADME, Microsome; details: read-out: CLH
[12] = Intrinsic clearance in Sprague-Dawley rat; assay type: ADME
[13] = Solubility of the compound in JP1 solution; assay type: physicochemical

Row | Compound | Activity (Mus musculus [1]) | Activity [2] | Activity (Mus musculus [3]) | Activity [4] | half-life [5] [min] | EC50 [6] [µM] | EC50 [7] [µM] | EC50 [8] [µM] | half-life [9] [min] | solubility [10] [µM] | CLint scaled [11] [mL/min/kg] | CLint scaled [12] [mL/min/kg] | solubility [13] [µM]
1 | N#Cc1ccc2c(c1)C[C@H](CO)N[C@@H]2c1cc(F)cc(Cl)c1 | Active | Active | Active | Active | – | – | – | – | – | – | – | – | –
2 | C=CCNC(=S)/N=c1/sc2ccccc2n1C | – | – | – | – | 4.1 | 0.631 | 9.4 | 10 | 2.6 | 0.9 (≈ 0.237 µg/mL) | 338 | 540 | 1.7 (≈ 0.448 µg/mL)
